Source: publication PMC10932284 (International Journal of Molecular Sciences, 2024)
Where two headings read alike, the source gives them in different places.

Tests used:
hCA II = biological target: hCA II; design: method as in PMID 31794211; conditions: stopped-flow CO2 hydrase assay; cited from earlier work
hCA I = biological target: hCA I; design: method as in PMID 31794211; conditions: stopped-flow CO2 hydrase assay; cited from earlier work
MtCA2 = biological target: T1, MtCA2 (Mycobacterium tuberculosis, UniProt P9WPJ9); assay: stopped-flow CO2 hydrase assay, MtCA2; format: biochemical; conditions: for Selectivity Index (SI) hCA II/MtCA2: ratio of Ki values
T1 construct: made in house
T1 sequence (P9WPJ9 whole entry, looked up): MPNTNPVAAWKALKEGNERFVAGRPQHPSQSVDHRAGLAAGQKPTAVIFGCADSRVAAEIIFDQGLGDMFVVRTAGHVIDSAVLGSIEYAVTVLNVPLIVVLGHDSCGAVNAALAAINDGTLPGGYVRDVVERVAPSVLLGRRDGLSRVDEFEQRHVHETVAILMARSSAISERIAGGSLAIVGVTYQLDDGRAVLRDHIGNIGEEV
Protocol: BTDs 2a-2t were submitted to a stopped-flow CO2 hydrase kinetic assay to evaluate the inhibitory profile against the mycobacterial β-CAs MtCA1, MtCA2, MtCA3 (Table 1), in comparison to the inhibitory effect on hCA I and II, which were selected due to their abundance in the human organism and thus off-target in this study.
A stopped-flow instrument from Applied Photophysics was utilized to assess the inhibition of CA-catalyzed CO2 hydration activity. […] The assay employed 20 mM HEPES (pH 8.3) as a buffer and 20 mM Na2SO4 to maintain constant ionic strength. The investigation focused on the initial rates of the CA-catalyzed CO2 hydration reaction over a duration of 10–100 s. CO2 concentrations ranging from 1.7 to 17 mM were employed to determine kinetic parameters and inhibition constants. For each inhibitor, a minimum of six traces of the initial 5–10% of the reaction were utilized to determine the initial velocity. Uncatalyzed rates were determined in a similar manner and subtracted from the overall observed rates. Inhibitor stock solutions (0.1 mM) were initially prepared in distilled–deionized water, followed by subsequent dilutions up to 0.01 nM with the assay buffer. To allow for the formation of the E-I complex, inhibitor and enzyme solutions were preincubated together for 15 min at room temperature before the assay. The inhibition constants were derived through nonlinear least-squares methods using PRISM and the Cheng–Prusoff equation, as previously reported, representing the mean from at least three different determinations.

MtCA1 = biological target: T2, MtCA1 (Mycobacterium tuberculosis, UniProt P9WPJ7); assay: biochemical; conditions: for Selectivity Index (SI) hCA II/MtCA1: ratio of Ki values
T2 construct: made in house
T2 sequence (P9WPJ7 whole entry): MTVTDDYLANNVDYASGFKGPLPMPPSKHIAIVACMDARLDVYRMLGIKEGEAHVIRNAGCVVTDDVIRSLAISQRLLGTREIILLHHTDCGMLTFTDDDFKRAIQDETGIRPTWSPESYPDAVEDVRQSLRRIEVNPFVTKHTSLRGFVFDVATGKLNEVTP

MtCA3 = MtCA3 (Mycobacterium tuberculosis, UniProt P96878); assay: biochemical; conditions: for Selectivity Index (SI) hCA II/MtCA3: ratio of Ki values; for Ki: stopped-flow CO2 hydrase assay, mean from three assays
Chain of MtCA3 (P96878 550-764 limits assumed): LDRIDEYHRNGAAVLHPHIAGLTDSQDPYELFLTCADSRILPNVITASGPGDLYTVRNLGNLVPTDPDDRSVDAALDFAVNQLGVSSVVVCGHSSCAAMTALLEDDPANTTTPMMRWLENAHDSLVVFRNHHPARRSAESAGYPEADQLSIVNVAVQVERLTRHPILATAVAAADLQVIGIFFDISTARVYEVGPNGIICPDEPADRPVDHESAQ

[1] = tested on: M. tuberculosis strain susceptible to rifampicin and isoniazid; assay: tuberculostatic activity assay, strain susceptible to rifampicin and isoniazid; format: cell-based, Mycobacterium tuberculosis; conditions: for growth inhibition of mycobacteria (in words): 1 µg/mL; for number of M. tuberculosis colonies/standard inoculum volume (0.2 mL): 28 days, 37 °C
[2] = stopped-flow CO2 hydrase assay, mean from three assays, read-out: Ki MtCA1
[3] = 1 µg/mL in Lowenstein Jensen medium
[4] = 2 µg/mL in Lowenstein Jensen medium

## O=C1Nc2c(C(=O)O)cccc2S(=O)(=O)N1 [2r]
hCA II
  Ki: 2.45 µM
hCA I
  Ki: 5.78 µM
MtCA2
  Ki: 0.105 ± 0.006 µM
  Selectivity Index (SI) hCA II/MtCA2: 23.2
MtCA1
  Selectivity Index (SI) hCA II/MtCA1: 0.7
MtCA1; [2]
  Ki: 3.28 ± 0.204 µM
MtCA3
  Selectivity Index (SI) hCA II/MtCA3: 37.4
  Ki: 0.0654 ± 0.0039 µM

## O=C1Nc2c(Br)cccc2S(=O)(=O)N1 [2k]
hCA II
  Ki: 0.527 µM
hCA I
  Ki: 2.32 µM
MtCA2
  Ki: 0.458 ± 0.025 µM
  Selectivity Index (SI) hCA II/MtCA2: 1.1
MtCA1
  Selectivity Index (SI) hCA II/MtCA1: 0.5
MtCA1; [2]
  Ki: 0.993 ± 0.033 µM
MtCA3
  Selectivity Index (SI) hCA II/MtCA3: 6.4
  Ki: 0.0824 ± 0.0049 µM

## Cc1cc(C)c2c(c1)S(=O)(=O)NC(=O)N2 [2d]
hCA II
  Ki: 0.764 µM
hCA I
  Ki: 1.27 µM
MtCA1; [2]
  Ki: 0.934 ± 0.078 µM
[1]
  growth inhibition of mycobacteria (in words): active
[1]; [3]
  number of M. tuberculosis colonies/standard inoculum volume (0.2 mL): 0 colonies
[1]; [4]
  number of M. tuberculosis colonies/standard inoculum volume (0.2 mL): 0 colonies
MtCA3
  Ki: 0.0151 ± 0.0009 µM

## Cc1cc(C)c2c(c1)NC(=O)NS2(=O)=O [2f]
hCA II
  Ki: 2.94 µM
hCA I
  Ki: 1.92 µM
MtCA2
  Ki: 4.48 ± 0.277 µM
  Selectivity Index (SI) hCA II/MtCA2: 0.7
MtCA1
  Selectivity Index (SI) hCA II/MtCA1: <0.3
MtCA1; [2]
  Ki: > 10 µM
MtCA3
  Selectivity Index (SI) hCA II/MtCA3: 1.3
  Ki: 2.25 ± 0.168 µM

## O=C1Nc2c(Cl)cccc2S(=O)(=O)N1 [2i]
hCA II
  Ki: 0.686 µM
hCA I
  Ki: 0.93 µM
MtCA2
  Ki: 0.214 ± 0.013 µM
  Selectivity Index (SI) hCA II/MtCA2: 3.2
MtCA1
  Selectivity Index (SI) hCA II/MtCA1: 0.5
MtCA1; [2]
  Ki: 1.5 ± 0.089 µM
MtCA3
  Selectivity Index (SI) hCA II/MtCA3: 15.5
  Ki: 0.0443 ± 0.0029 µM

## CC(=O)/N=c1/sc(S(N)(=O)=O)nn1C [MTZ, reference compound]
[1]; [3]
  number of M. tuberculosis colonies/standard inoculum volume (0.2 mL): 30–100 colonies
[1]; [4]
  number of M. tuberculosis colonies/standard inoculum volume (0.2 mL): 0 colonies

## O=C1Nc2ccc(Cl)cc2S(=O)(=O)N1 [2j]
hCA II
  Ki: 1.14 µM
hCA I
  Ki: 1.86 µM
MtCA2
  Ki: 0.0671 ± 0.0043 µM
  Selectivity Index (SI) hCA II/MtCA2: 17.0
MtCA1
  Selectivity Index (SI) hCA II/MtCA1: 0.5
MtCA1; [2]
  Ki: 2.46 ± 0.174 µM
MtCA3
  Selectivity Index (SI) hCA II/MtCA3: 28.7
  Ki: 0.0398 ± 0.0022 µM

## Cc1ccc2c(c1)S(=O)(=O)NC(=O)N2 [2c]
hCA II
  Ki: 0.872 µM
hCA I
  Ki: 1.07 µM
MtCA2
  Ki: 0.0413 ± 0.002 µM
  Selectivity Index (SI) hCA II/MtCA2: 21.1
MtCA1
  Ki: 1.05 ± 0.065 µM
  Selectivity Index (SI) hCA II/MtCA1: 0.8
[1]
  growth inhibition of mycobacteria (in words): active
[1]; [3]
  number of M. tuberculosis colonies/standard inoculum volume (0.2 mL): 0 colonies
[1]; [4]
  number of M. tuberculosis colonies/standard inoculum volume (0.2 mL): 0 colonies
MtCA3
  Selectivity Index (SI) hCA II/MtCA3: 47.1
  Ki: 0.0185 ± 0.0016 µM

## O=C1Nc2ccccc2S(=O)(=O)N1 [2a]
hCA II
  Ki: 0.15 µM
hCA I
  Ki: 0.866 µM
MtCA2
  Ki: 0.0686 ± 0.0031 µM
  Selectivity Index (SI) hCA II/MtCA2: 2.2
MtCA1
  Selectivity Index (SI) hCA II/MtCA1: 0.1
MtCA1; [2]
  Ki: 1.68 ± 0.093 µM
[1]; [4]
  number of M. tuberculosis colonies/standard inoculum volume (0.2 mL): 0 colonies
MtCA3
  Selectivity Index (SI) hCA II/MtCA3: 5.2
  Ki: 0.0287 ± 0.0021 µM

## CC(=O)Nc1nnc(S(N)(=O)=O)s1 [AAZ, acetazolamide, reference compound]
[1]
  growth inhibition of mycobacteria (in words): active
[1]; [3]
  number of M. tuberculosis colonies/standard inoculum volume (0.2 mL): 0 colonies
[1]; [4]
  number of M. tuberculosis colonies/standard inoculum volume (0.2 mL): 0 colonies

## O=C1Nc2c(ccc3ccccc23)S(=O)(=O)N1 [2n]
hCA II
  Ki: 0.484 µM
hCA I
  Ki: 2.07 µM
MtCA2
  Ki: 0.995 ± 0.035 µM
  Selectivity Index (SI) hCA II/MtCA2: 0.5
MtCA1
  Selectivity Index (SI) hCA II/MtCA1: 0.5
MtCA1; [2]
  Ki: 1.04 ± 0.041 µM
MtCA3
  Selectivity Index (SI) hCA II/MtCA3: 4.0
  Ki: 0.12 ± 0.008 µM

## O=C1Nc2ccc(C(=O)O)cc2S(=O)(=O)N1 [2s]
hCA II
  Ki: 6.78 µM
hCA I
  Ki: > 10 µM
MtCA2
  Ki: 0.223 ± 0.018 µM
  Selectivity Index (SI) hCA II/MtCA2: 30.4
MtCA1
  Ki: 4.87 ± 0.315 µM
  Selectivity Index (SI) hCA II/MtCA1: 1.4
MtCA3
  Ki: 0.101 ± 0.005 µM

## COc1ccc2c(c1)S(=O)(=O)NC(=O)N2 [2m]
hCA II
  Ki: 1.92 µM
hCA I
  Ki: 3.81 µM
MtCA2
  Ki: 0.152 ± 0.011 µM
  Selectivity Index (SI) hCA II/MtCA2: 12.6
MtCA1
  Selectivity Index (SI) hCA II/MtCA1: 0.7
MtCA1; [2]
  Ki: 2.76 ± 0.166 µM
MtCA3
  Selectivity Index (SI) hCA II/MtCA3: 32.5
  Ki: 0.0592 ± 0.0042 µM

## CN1C(=O)NS(=O)(=O)c2ccccc21 [2o]
hCA II
  Ki: 0.853 µM
hCA I
  Ki: 3.41 µM
MtCA2
  Ki: 0.0396 ± 0.0021 µM
  Selectivity Index (SI) hCA II/MtCA2: 21.5
MtCA1
  Selectivity Index (SI) hCA II/MtCA1: 1.5
MtCA1; [2]
  Ki: 0.556 ± 0.037 µM
MtCA3
  Selectivity Index (SI) hCA II/MtCA3: 26.2
  Ki: 0.0325 ± 0.0024 µM

## O=C1Nc2ccc(F)cc2S(=O)(=O)N1 [2h]
hCA II
  Ki: 0.534 µM
hCA I
  Ki: 1.29 µM
MtCA2
  Ki: 0.0425 ± 0.0016 µM
MtCA1; [2]
  Ki: 1.83 ± 0.137 µM
[1]
  growth inhibition of mycobacteria (in words): active
[1]; [3]
  number of M. tuberculosis colonies/standard inoculum volume (0.2 mL): 0 colonies
[1]; [4]
  number of M. tuberculosis colonies/standard inoculum volume (0.2 mL): 0 colonies

## O=C1NS(=O)(=O)c2cccc3c2N1CC3 [2q]
hCA II
  Ki: 1.06 µM
hCA I
  Ki: 6.86 µM
MtCA2
  Ki: 0.599 ± 0.031 µM
  Selectivity Index (SI) hCA II/MtCA2: 1.8
MtCA1
  Selectivity Index (SI) hCA II/MtCA1: 1.2
MtCA1; [2]
  Ki: 0.883 ± 0.024 µM
MtCA3
  Selectivity Index (SI) hCA II/MtCA3: 13.9
  Ki: 0.0762 ± 0.0056 µM

## O=C1Nc2ccc(O)cc2S(=O)(=O)N1 [2t]
hCA II
  Ki: 3.02 µM
hCA I
  Ki: 1.89 µM
MtCA2
  Ki: 0.0584 ± 0.0041 µM
  Selectivity Index (SI) hCA II/MtCA2: 51.8
MtCA1
  Selectivity Index (SI) hCA II/MtCA1: 1.3
MtCA1; [2]
  Ki: 2.39 ± 0.126 µM
[1]; [3]
  number of M. tuberculosis colonies/standard inoculum volume (0.2 mL): 30–100 colonies
[1]; [4]
  number of M. tuberculosis colonies/standard inoculum volume (0.2 mL): 0 colonies
MtCA3
  Selectivity Index (SI) hCA II/MtCA3: 66.3
  Ki: 0.0456 ± 0.0035 µM

## CN1C(=O)NS(=O)(=O)c2cc(Cl)ccc21 [2p]
hCA II
  Ki: 2.34 µM
hCA I
  Ki: > 10 µM
MtCA2
  Ki: 0.135 ± 0.009 µM
  Selectivity Index (SI) hCA II/MtCA2: 17.3
MtCA1
  Selectivity Index (SI) hCA II/MtCA1: 2.0
MtCA1; [2]
  Ki: 1.18 ± 0.075 µM
MtCA3
  Selectivity Index (SI) hCA II/MtCA3: 50.8
  Ki: 0.046 ± 0.0033 µM

## Cc1cccc2c1NC(=O)NS2(=O)=O [2b]
hCA II
  Ki: 0.144 µM
hCA I
  Ki: 0.969 µM
MtCA2
  Ki: 0.0585 ± 0.0017 µM
  Selectivity Index (SI) hCA II/MtCA2: 2.5
MtCA1
  Selectivity Index (SI) hCA II/MtCA1: 0.1
MtCA1; [2]
  Ki: 1.46 ± 0.101 µM
MtCA3
  Selectivity Index (SI) hCA II/MtCA3: 6.8
  Ki: 0.0213 ± 0.0017 µM

## Cc1ccc(C)c2c1NC(=O)NS2(=O)=O [2e]
hCA II
  Ki: 2.19 µM
hCA I
  Ki: 2.54 µM
MtCA2
  Ki: 2.37 ± 0.167 µM
  Selectivity Index (SI) hCA II/MtCA2: 0.9
MtCA1
  Selectivity Index (SI) hCA II/MtCA1: <0.2
MtCA1; [2]
  Ki: > 10 µM
MtCA3
  Selectivity Index (SI) hCA II/MtCA3: 1.4
  Ki: 1.54 ± 0.091 µM

## O=C1Nc2ccc(Br)cc2S(=O)(=O)N1 [2l]
hCA II
  Ki: 2.36 µM
hCA I
  Ki: 4.4 µM
MtCA2
  Ki: 0.2 ± 0.014 µM
  Selectivity Index (SI) hCA II/MtCA2: 11.8
MtCA1
  Selectivity Index (SI) hCA II/MtCA1: 0.8
MtCA1; [2]
  Ki: 2.96 ± 0.213 µM
MtCA3
  Selectivity Index (SI) hCA II/MtCA3: 26.2
  Ki: 0.0901 ± 0.0067 µM

## O=C1Nc2c(F)cccc2S(=O)(=O)N1 [2g]
hCA II
  Ki: 0.14 µM
hCA I
  Ki: 0.547 µM
MtCA2
  Ki: 0.0629 ± 0.0025 µM
  Selectivity Index (SI) hCA II/MtCA2: 2.2
MtCA1
  Selectivity Index (SI) hCA II/MtCA1: 0.1
MtCA1; [2]
  Ki: 1.29 ± 0.096 µM
MtCA3
  Selectivity Index (SI) hCA II/MtCA3: 8.6
  Ki: 0.0162 ± 0.0011 µM
